Data as given in patent publication US20170157135A1 (Novogen Limited, priority 2013, published 2017).

Legend:
[1] = system: SKMEL28 melanoma (SK-MeI-28) cells; experiment: Cell viability assay (MTT), SKMEL28; format: cell-based; conditions: Homo sapiens, SK-MEL-28, 48 hr treatment
Protocol: (§1) Cell viability assays were also conducted to assess the anti-proliferative effects of the anti-tropomyosin compounds. Briefly, cells (1×10^3/well) were plated (96-well) and treated (48 hr) with anti-tropomyosin drug and viability measured using 3-(4,5-dimethylthiazol-2-yl)-2,5-diphenylterazolium bromide MTT. Cell viability was normalized to control (vehicle alone) and dose-response curves, and half maximal effective concentration (EC50) values were determined using Graph Pad Prism 5 (nonlinear regression sigmoidal dose-response variable slope).

[2] = system: SHEP neuroblastoma (SH-EP) cells; experiment: Cell viability assay (MTT), SHEP; format: cell-based; conditions: 48 hr treatment
Protocol: as §1

actin cytoskeleton = experiment: Microfilament disruption assay (phalloidin actin staining); format: cell-based; conditions: 24 hours
Protocol: In silico modeling has identified binding sites on tropomyosin Tm5NM1, yielding the series of tropomyosin inhibitors the subject of the present invention. Inhibition of Tm5NM1 in tumour cells results in disruption of the actin cytoskeleton and ultimately cell death. The ability of compounds 2001-2012 to disrupt the actin cytoskeleton was assessed in vitro using the microfilament disruption assay. Briefly, cells were seeded (5×10^3/well) into 8-well chamber slides (NUNC) and treated with the concentrations of anti-tropomyosin compounds nominated in Table 1 for 24 hours using DMSO as vehicle control. Actin was visualized with Alexa 555 conjugated phalloidin (Molecular probes). Random fields were imaged using an Olympus IX81 microscope. Cells (n>50) were scored on the basis of positive filament staining from n=3 independent experiments.

[3] = system: SK-N-SH neuroblastoma cells; experiment: Anti-proliferative assay (cell-titre luminescent), SK-N-SH; format: cell-based; conditions: Homo sapiens, 72 hours, luminescence
Method in brief: (§2)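 Luminescence read-out (cell-titre reagent, 30 min) after 72 h compound exposure at six concentrations from 0.1 to 30 μM. Viability was normalized to vehicle control, and EC50 was derived by nonlinear variable-slope dose-response regression.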

SK-Mel-28 melanoma cells = experiment: Anti-proliferative assay (cell-titre luminescent), SK-Mel-28; format: cell-based; conditions: Homo sapiens; SK-Mel-28, 72 hours, luminescence
Method in brief: as §2

[4] = system: DU145 prostate cancer cells; experiment: Anti-proliferative assay (cell-titre luminescent), DU145; format: cell-based; conditions: Homo sapiens, DU-145; DU145, 72 hours, luminescence
Method in brief: as §2

[5] = system: PC3 prostate cancer cells; experiment: Anti-proliferative assay (cell-titre luminescent), PC3; format: cell-based; conditions: PC3, 72 hours, luminescence
Method in brief: as §2

[6] = system: CaCo2 colorectal cancer cells; experiment: Anti-proliferative assay (cell-titre luminescent), CaCo2; format: cell-based; conditions: Homo sapiens, Caco-2; CaCo2, 72 hours, luminescence
Method in brief: as §2

A549 lung (NSLC) cells = experiment: Anti-proliferative assay (cell-titre luminescent), A549; format: cell-based; conditions: Homo sapiens; A549, 72 hours, luminescence
Method in brief: as §2

[7] = system: MDA-MB-231 breast cancer cells; experiment: Anti-proliferative assay (cell-titre luminescent), MDA-MB-231; format: cell-based; conditions: Homo sapiens; MDA-MB-231, 72 hours, luminescence
Method in brief: as §2

Tm5NM1 = Tm5NM1 (Homo sapiens, UniProt P06753); experiment: Pyrene-based actin filament depolymerization assay, Tm5NM1-containing actin filaments; format: biochemical; conditions: 50 μM compound, p=0.1 vs F-actin alone
Tm5NM1, sequence (P06753 1-248 isoform P06753-2): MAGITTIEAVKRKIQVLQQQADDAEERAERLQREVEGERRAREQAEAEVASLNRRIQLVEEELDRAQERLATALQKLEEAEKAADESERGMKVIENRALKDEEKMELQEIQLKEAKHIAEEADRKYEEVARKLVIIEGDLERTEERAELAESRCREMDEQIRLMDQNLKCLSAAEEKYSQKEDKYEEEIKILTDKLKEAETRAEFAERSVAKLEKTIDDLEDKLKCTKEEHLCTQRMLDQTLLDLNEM
Protocol: FIG. 1: Impact of compound 2026 on Tm5NM1-regulated actin-filament depolymerization kinetics. (A and C) Depolymerization time course of 6 μM actin filaments (35% pyrene labelled) diluted 12-fold into F-actin buffer (100 mM NaCl, 10 mM Tris-HCl pH 7.0, 2 mM MgCl2, 1 mM EGTA, 0.2 mM CaCl2, 0.2 mM ATP, 0.5 mM DTT, 0.01% (v/v) NaN3) in the presence or absence of saturating amounts (10 μM) of Tm5NM1. Final concentration of F-actin and Tm5NM1 was 0.5 μM and 0.83 μM respectively. Tm5NM1 was pre-incubated with 50 μM compound 2026 or 1% (v/v) DMSO prior to mixing with F-actin. Depolymerization data is normalized to the initial fluorescence value. (B and D) Initial rates (V0) of depolymerization for F-actin alone or Tm5NM1/F-actin, in the presence of compound 2026. Initial rates of depolymerization were determined from the first 3600 s, fitted to a linear regression model. Data represents mean±SEM, averaged from n>6 replicates.
A brief overview and rationale of the assay is as follows: to promote depolymerization, pyrene-labelled actin filaments were diluted below the critical concentration of the pointed end (0.5 μM, as defined by Pollard et al., 1986). A decline in fluorescence was measured over time as actin monomers dissociate. […]
The depolymerization of F-actin alone and F-actin-coated with Tm5NM1 was then measured in the presence of compound and initial rates of depolymerization were compared. […]

| SMILES | IC50 [1] [µM] | IC50 [2] [µM] | IC50 [3] [µM] | IC50 (SK-Mel-28 melanoma cells) [µM] | IC50 [4] [µM] | IC50 [5] [µM] | IC50 [6] [µM] | IC50 (A549 lung (NSLC) cells) [µM] | IC50 [7] [µM] | Microfilament disruption 10 μM (actin cytoskeleton) | Effect on Tm5NM1 function (protection of actin filaments from depolymerization) (Tm5NM1) |
| --- | --- | --- | --- | --- | --- | --- | --- | --- | --- | --- | --- |
| Cc1c(/C=C/C(=O)N2CCN(CCc3ccc(F)cc3)CC2)c2ccccc2n1CCCN(C)C [Compound 2002, (E)-3-(1-(3-(dimethylamino)propyl)-2-methyl-1H-indol-3-yl)-1-(4-(4-fluorophenethyl)piperazin-1-yl)prop-2-en-1-one] | 2.01 | 9.6 | 12.2 | 5.7 | 11.1 | 22.5 | 23.5 | 11.9 | 11.5 | no cells | – |
| Cc1c(/C=C/C(=O)N2CCN(Cc3ccc(F)cc3)CC2)c2ccccc2n1CCCN(C)C [Compound 2003, (E)-3-(1-(3-(dimethylamino)propyl)-2-methyl-1H-indol-3-yl)-1-(4-(4-fluorobenzyl)piperazin-1-yl)prop-2-en-1-one] | 3.1 | 2.3 | – | – | – | – | – | – | – | no cells | – |
| COc1ccc2c(c1)c(/C=C/C(=O)N1CCN(CCc3ccccc3)CC1)c(C)n2CCCN(C)C [Compound 2009, (E)-3-(1-(3-(dimethylamino)propyl)-5-methoxy-2-methyl-1H-indol-3-yl)-1-(4-phenethylpiperazin-1-yl)prop-2-en-1-one] | 1.86 | 2.4 | 10.8 | 6.5 | 14.3 | 30 | 16.1 | 54.3 | 30 | no cells | – |
| COc1ccc(CN2CCN(C(=O)/C=C/c3c(C)n(CCCN(C)C)c4ccccc34)CC2)cc1 [Compound 2010, (E)-3-(1-(3-(dimethylamino)propyl)-2-methyl-1H-indol-3-yl)-1-(4-(4-methoxybenzyl)piperazin-1-yl)prop-2-en-1-one] | 2.75 | 3.2 | – | – | – | – | – | – | – | – | – |
| Cc1c(/C=C/C(=O)NCCc2ccccc2)c2ccccc2n1CCCN(C)C [Compound 2011, (E)-3-(1-(3-(dimethylamino)propyl)-2-methyl-1H-indol-3-yl)-N-phenethylacrylamide] | 12.1 | 13.2 | – | – | – | – | – | – | – | – | – |
| Cc1nc(-c2cn(CCCN(C)C)c3ccccc23)cc(N2CCN(CCc3ccccc3)CC2)n1 [Compound 2012, N,N-dimethyl-3-(3-(2-methyl-6-(4-phenethylpiperazin-1-yl)pyrimidin-4-yl)-1H-indol-1-yl)propan-1-amine] | 3.2 | 21.7 | – | – | – | – | – | – | – | – | – |
| CCN(CC)CCCn1c(C)c(/C=C/C(=O)N2CCN(CCc3cccc(F)c3)CC2)c2cc(OC)ccc21 [Compound 2026, (E)-3-(1-(3-(diethylamino)propyl)-5-methoxy-2-methyl-1H-indol-3-yl)-1-(4-(3-fluorophenethyl)piperazin-1-yl)prop-2-en-1-one] | – | – | 2.5 | 1.7 | 9.8 | 5.2 | 4.1 | 3.4 | 4.3 | – | interacts with and impairs Tm5NM1 function |

The next lines start with results.

| IC50 [1] [µM] | IC50 [2] [µM] | IC50 [3] [µM] | IC50 (SK-Mel-28 melanoma cells) [µM] | IC50 [4] [µM] | IC50 [5] [µM] | IC50 [6] [µM] | IC50 (A549 lung (NSLC) cells) [µM] | IC50 [7] [µM] | SMILES | Microfilament disruption 10 μM (actin cytoskeleton) | Effect on Tm5NM1 function (protection of actin filaments from depolymerization) (Tm5NM1) |
| --- | --- | --- | --- | --- | --- | --- | --- | --- | --- | --- | --- |
| 157 | 12.5 | – | – | – | – | – | – | – | Cc1c(/C=C/C(=O)N2CCN(CCc3ccccc3)CC2)c2ccccc2n1CCN(C)C [Compound 2006, (E)-3-(1-(2-(dimethylamino)ethyl)-2-methyl-1H-indol-3-yl)-1-(4-phenethylpiperazin-1-yl)prop-2-en-1-one] | – | – |
| 33.1 | 24 | – | – | – | – | – | – | – | Cc1c(/C=C/C(=O)N2CCN(CCc3ccccc3)CC2)c2ccccc2n1CCCN1CCOCC1 [Compound 2007, (E)-3-(2-methyl-1-(3-morpholinopropyl)-1H-indol-3-yl)-1-(4-phenethylpiperazin-1-yl)prop-2-en-1-one] | – | – |
| 3.7 | 1.92 | – | – | – | – | – | – | – | Cc1c(/C=C/C(=O)N2CCN(CCc3ccccc3)CC2)c2ccccc2n1CCCN1CCN(C)CC1 [Compound 2008, (E)-3-(2-methyl-1-(3-(4-methylpiperazin-1-yl)propyl)-1H-indol-3-yl)-1-(4-phenethylpiperazin-1-yl)prop-2-en-1-one] | no cells | – |
